Reference: patent US20100003711A1, “Methods to identify therapeutic agents” (THE SCRIPPS RESEARCH INSTITUTE, priority 2005, published 2010)

Key:
LDL / apoB-100 = LDL / apoB-100 (Homo sapiens, UniProt P04114); test: Circular dichroism of LDL secondary structure; conditions: LDL 100 μg/ml with 10 μM compound, PBS pH 7.4, 37° C., up to 48 h; normal LDL ~40±2%
Description: Spectra were recorded in the peptidic range (200-260 nm). To increase the signal-to-noise ratio, multiple spectra (three) were averaged for each measurement. The deconvolution of the molar elipticity spectra for each measurement was performed using the CDPro suite of software (by Narasimha Sreerama from Colorado State University) on a Dell PC.

ICAM-1 (CD54) = test: Endothelial adhesion molecule expression by ELISA, ICAM-1; assay type: cell-based, human
Description: Endothelial cell surface adhesion molecule expression was measured by ELISA, using anti-human CD54 (ICAM-1), CD106 (VCAM-1) and CD62E (E-Selectin) antibodies (Leinco Technologies, Inc., St. Louis, Mo.). The ELISA method was modified from previously described procedures.
Cells were then incubated with antibodies to VCAM-1, E-selectin, or ICAM-1 diluted 1:400 in PBS containing 5% FCS at 37° C. for 30 min. Wells were washed two times with PBS, then incubated with horseradish peroxidase (HRP)-conjugated goat anti-mouse IgG (Southern Biotechnology Associates, Birmingham, Ala., USA) in PBS/5% FCS at 37° C. for 30 min. The wells were washed four times with PBS, then incubated with H2O2/3,3′,5,5′-tetramethyl-benzidine peroxidase substrate (Pierce Chemical, Rockford, Ill., USA) for 30 min in the dark. The reaction was stopped by adding 25 μl of 8 N H2SO4, and the plates read on a microplate reader, blanking on wells stained with only secondary antibody. Each assay was performed in triplicate and the data are reported as the mean±SEM as a percentage of the expression level of the vehicle. To study the effect of cholesterol ozonation product 5a concentration (5-50 μM) on E-selectin expression, the assay was performed in an identical fashion as described above, with each point being the mean±SEM of at least duplicate measurements.

U-937 monocytes cells = test: Monocyte adhesion to endothelial cell monolayers by fluorescence spectroscopy; assay type: cell-based; conditions: alone or in complex with LDL
CD36 = test: Scavenger receptor expression by flow cytometry, CD36; assay type: cell-based, murine
Description: Cell surface CD36 and SR-A were measured by flow cytometry using CD36 (BD Biosciences Pharmingen, San Diego, Calif.) and CD204 (Serotec, Oxford, UK) specific monoclonal antibodies. See Liao et al. (2000) Arterioscler. Thromb. Vasc. Biol. 20: 1968-75; Hu et al. (1996) Blood 87: 2020-28. Murine macrophage J774A.1 cells were serum-starved overnight in media with 0.5% BSA. Cells (1×10^6) treated with cholesterol ozonation products or cholesterol ozonation product complexed with LDL for specified times were then washed twice with PBS. After harvesting the cells by scraping, they were fixed with 6% paraformaldehyde for 20 min; Cells were then resuspended in PBS containing 2% heat-inactivated FCS, 0.05% NaN3 and appropriate primary antibody, antibody conjugate or isotype control (1:100 dilution) and incubated on ice for 30 min. Expression of either CD36 or SR-A was determined with CD36 (BD Biosciences Pharmingen, San Diego, Calif.) and CD204 (Serotec, Oxford, U.K.) specific monoclonal antibodies, respectively. After washing off the primary antibody, secondary antibodies were added, cells were washed again, then analyzed on a FACS calibur 2 (Becton Dickinson, Sparks, Md.) flow cytometer and analyzed by CellQuant software. Results were expressed as mean fluorescence intensity±standard error of the mean (SEM) of at least duplicate determinations. Significance was determined using a student two-tail t test, with (*) indicating p<0.05, and (**) indicating p<0.01 versus the control.

[1] = system: murine macrophage J774A.1; test: Modified Boyden chamber migration (chemotaxis) assay; assay type: cell-based
Description: Chemotaxis and invasion assays were performed using a modified Boyden chamber migration assay. Zwirner et al. (1998) Eur. J. Immunol. 28: 1570-77; Wilkinson (1988) Methods Enzymol. 162: 38-50. Assays were set up on MultiScreen-MIC plates (Millipore, Billerica, Mass., USA) with polyvinylpyrrolidone-free polycarbonate membranes (5 μm pore size). Cells (murine macrophage J774A.1) were washed and resuspended in serum-free DMEM containing 0.2% BSA at 1×10^6 cells/ml. Fifty microliters of cells were added to the upper wells and 150 μl of chemoattractant in DMEM/0.2% BSA were added to the lower wells of the microchamber. Incubation time was for 4 h at 37° C. in an 8% CO2 atmosphere. After swiping cells off the upper side of the membrane, cells on the lower side were visualized by either staining and phase contrast microscopy, or fluorescence. Cells that had adhered to the membrane were stained using a DiffQuik staining kit (Dade Behring, Newark, Del.). Each experiment was performed in triplicate and the numbers of migrating cells were counted in five fields at ×200. Cells harvested with PBS-EDTA for fluorescent labeling were washed two times with PBS, then resuspended in serum-free medium containing calcein AM (5 μM). Cells were incubated for 30 min (37° C., 5% CO2) with gentle intermittent mixing. Calcein-labeled cells were washed twice, and calcein fluorescence ([…]) was measured using a SPECTRAmax™ GEMINI dual-scanning microplate spectrofluorometer. Fluorescence measurements were compared to a standard curve, generated by dilution of cells in PBS/BSA in 100 μl, dispensed into 96-well plates. Fluorescence was quantified as described above.

Sequence of LDL / apoB-100 (P04114 28-4563): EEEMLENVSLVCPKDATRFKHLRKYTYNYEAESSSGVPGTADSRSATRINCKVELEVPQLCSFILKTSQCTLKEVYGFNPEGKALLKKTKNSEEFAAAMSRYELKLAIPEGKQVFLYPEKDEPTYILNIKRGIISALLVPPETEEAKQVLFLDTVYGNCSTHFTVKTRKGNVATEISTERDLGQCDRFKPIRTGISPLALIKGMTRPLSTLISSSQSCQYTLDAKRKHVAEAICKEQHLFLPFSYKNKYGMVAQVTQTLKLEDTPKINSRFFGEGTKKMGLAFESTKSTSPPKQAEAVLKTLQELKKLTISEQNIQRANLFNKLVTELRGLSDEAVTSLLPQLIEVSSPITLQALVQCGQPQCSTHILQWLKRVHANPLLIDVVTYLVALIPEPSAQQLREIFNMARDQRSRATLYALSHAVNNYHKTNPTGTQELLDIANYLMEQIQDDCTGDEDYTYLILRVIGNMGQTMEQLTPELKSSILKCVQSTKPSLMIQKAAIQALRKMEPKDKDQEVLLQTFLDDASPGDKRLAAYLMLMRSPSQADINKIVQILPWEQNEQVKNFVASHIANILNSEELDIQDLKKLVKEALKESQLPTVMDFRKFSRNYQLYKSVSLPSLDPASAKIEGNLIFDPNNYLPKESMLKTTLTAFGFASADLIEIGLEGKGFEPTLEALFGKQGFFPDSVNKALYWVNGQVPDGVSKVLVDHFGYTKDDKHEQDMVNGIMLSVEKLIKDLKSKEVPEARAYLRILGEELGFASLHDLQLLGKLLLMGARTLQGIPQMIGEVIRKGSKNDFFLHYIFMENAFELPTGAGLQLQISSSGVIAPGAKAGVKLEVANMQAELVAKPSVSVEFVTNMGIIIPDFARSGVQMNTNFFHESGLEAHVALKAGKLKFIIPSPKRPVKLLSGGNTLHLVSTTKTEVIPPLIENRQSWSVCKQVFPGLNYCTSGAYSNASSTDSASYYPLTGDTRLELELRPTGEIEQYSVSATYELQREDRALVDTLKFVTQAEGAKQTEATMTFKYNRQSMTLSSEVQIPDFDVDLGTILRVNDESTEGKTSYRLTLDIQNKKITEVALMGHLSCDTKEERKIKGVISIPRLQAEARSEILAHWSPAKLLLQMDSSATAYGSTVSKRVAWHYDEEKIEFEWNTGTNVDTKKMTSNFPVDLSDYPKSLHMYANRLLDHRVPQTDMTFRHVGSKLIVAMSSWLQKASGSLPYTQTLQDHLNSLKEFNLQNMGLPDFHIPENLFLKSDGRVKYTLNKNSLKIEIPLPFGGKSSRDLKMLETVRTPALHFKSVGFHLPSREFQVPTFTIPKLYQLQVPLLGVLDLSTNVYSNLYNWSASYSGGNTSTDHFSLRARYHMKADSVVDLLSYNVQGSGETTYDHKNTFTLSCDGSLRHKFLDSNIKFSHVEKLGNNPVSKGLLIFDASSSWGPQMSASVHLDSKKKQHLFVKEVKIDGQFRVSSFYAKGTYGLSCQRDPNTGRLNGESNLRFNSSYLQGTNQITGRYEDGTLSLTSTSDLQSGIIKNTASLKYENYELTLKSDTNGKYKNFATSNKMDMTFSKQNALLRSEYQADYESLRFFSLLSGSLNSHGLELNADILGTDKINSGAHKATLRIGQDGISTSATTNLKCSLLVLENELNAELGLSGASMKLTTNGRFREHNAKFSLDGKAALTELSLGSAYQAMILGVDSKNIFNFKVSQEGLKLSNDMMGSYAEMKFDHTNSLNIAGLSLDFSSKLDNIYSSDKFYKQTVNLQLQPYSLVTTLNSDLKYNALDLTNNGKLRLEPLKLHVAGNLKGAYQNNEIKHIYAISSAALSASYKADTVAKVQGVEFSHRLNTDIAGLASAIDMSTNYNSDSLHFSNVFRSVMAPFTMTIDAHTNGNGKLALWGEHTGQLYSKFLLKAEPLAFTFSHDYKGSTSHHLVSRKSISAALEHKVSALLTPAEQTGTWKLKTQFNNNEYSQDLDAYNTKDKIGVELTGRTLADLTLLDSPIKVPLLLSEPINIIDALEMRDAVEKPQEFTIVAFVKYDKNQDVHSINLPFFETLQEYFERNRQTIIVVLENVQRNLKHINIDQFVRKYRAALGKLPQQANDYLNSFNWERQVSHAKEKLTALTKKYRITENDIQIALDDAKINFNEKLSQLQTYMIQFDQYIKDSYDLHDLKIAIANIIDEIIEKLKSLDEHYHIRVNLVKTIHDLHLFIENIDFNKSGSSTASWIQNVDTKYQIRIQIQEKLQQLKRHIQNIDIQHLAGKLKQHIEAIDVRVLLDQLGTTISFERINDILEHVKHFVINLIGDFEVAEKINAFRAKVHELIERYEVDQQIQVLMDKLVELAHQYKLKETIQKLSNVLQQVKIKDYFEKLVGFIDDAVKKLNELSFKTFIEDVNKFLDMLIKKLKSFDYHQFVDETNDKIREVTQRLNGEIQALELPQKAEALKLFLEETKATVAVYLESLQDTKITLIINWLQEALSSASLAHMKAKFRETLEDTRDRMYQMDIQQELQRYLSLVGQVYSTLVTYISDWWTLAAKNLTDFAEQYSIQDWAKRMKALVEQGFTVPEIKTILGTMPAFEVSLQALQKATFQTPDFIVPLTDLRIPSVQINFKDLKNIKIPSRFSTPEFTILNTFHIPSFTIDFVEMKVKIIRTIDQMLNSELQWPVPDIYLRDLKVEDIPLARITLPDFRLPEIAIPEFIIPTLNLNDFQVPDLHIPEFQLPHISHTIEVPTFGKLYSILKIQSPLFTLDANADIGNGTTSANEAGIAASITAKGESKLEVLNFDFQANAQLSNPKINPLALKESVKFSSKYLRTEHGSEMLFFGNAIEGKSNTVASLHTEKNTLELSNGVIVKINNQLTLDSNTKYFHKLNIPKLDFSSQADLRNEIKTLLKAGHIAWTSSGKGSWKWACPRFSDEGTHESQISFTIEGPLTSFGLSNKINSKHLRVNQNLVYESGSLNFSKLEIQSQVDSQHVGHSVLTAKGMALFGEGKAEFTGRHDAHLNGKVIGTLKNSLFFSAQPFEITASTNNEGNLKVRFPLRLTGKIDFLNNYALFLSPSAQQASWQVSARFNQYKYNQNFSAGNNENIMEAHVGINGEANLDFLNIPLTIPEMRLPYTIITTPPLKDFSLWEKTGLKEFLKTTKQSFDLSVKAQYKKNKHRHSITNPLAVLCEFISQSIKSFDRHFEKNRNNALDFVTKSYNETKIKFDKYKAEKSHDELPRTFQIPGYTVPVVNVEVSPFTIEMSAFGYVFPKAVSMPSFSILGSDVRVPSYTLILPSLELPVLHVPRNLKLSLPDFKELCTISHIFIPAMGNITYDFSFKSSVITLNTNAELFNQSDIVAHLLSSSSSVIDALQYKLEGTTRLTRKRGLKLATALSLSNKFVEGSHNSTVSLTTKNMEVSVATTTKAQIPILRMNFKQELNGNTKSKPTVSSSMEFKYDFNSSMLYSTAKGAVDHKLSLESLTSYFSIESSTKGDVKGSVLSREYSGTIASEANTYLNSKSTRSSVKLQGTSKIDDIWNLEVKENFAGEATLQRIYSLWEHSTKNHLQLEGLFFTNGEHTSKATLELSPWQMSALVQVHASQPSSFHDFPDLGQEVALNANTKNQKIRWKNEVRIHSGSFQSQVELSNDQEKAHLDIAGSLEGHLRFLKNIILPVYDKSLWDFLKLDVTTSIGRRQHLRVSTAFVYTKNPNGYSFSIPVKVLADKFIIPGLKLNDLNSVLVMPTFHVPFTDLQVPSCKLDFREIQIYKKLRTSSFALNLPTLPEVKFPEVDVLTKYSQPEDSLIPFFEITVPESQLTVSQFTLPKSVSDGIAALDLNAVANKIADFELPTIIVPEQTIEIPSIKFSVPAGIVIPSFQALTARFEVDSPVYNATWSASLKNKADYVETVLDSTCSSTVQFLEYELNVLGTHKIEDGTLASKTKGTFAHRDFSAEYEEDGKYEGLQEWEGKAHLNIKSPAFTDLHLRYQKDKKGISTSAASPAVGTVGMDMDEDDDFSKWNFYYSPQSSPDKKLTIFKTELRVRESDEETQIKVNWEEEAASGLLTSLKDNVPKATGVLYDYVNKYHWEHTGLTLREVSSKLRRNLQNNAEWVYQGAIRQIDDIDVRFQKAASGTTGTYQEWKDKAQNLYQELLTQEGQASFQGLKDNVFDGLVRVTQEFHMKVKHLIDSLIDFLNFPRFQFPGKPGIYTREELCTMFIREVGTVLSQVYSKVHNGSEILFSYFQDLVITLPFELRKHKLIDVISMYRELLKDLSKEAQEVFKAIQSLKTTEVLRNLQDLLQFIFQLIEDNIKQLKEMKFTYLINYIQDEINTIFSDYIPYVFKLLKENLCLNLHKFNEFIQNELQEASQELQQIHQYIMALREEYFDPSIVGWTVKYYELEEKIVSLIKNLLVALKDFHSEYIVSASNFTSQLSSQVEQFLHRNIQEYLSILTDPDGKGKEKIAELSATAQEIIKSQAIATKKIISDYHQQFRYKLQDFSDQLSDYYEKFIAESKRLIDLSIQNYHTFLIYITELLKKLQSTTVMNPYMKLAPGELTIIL

With `CC(C)CCC[C@@H](C)[C@H]1CCC2C(CC=O)C([C@@]3(C)CC[C@H](O)CC3=O)CC[C@@]21C` (stereo partly drawn) [4a, 3βHydroxy-5-oxo-5,6-secocholestan-6-al] as the compound, how does the “a helical structure of LDL” value (LDL / apoB-100) read?
The value was about 23±5%.

And the ICAM-1 levels (ICAM-1 (CD54); HAAE-1, 25 μM compound in the presence of LDL, 4 h)?
Its ICAM-1 levels is “remain unchanged”.

And the “integrin expression (ICAM-1)” value (ICAM-1 (CD54); HAAE-1, not complexed with LDL)?
Its value is “no effects”.

And the “adhesion of U-937 monocytes to endothelial cell monolayers, above that of LDL alone” value (U-937 monocytes cells)?
Its value is “neither ozonolysis product 4a nor 5a, alone or in complex with LDL, nor CuOx-LDL significantly increased adhesion”.

What about the CD36 expression (CD36; J774A.1, 25 μM compound complexed with LDL (100 μg/ml protein), 6 h) of the same compound?
The CD36 expression was “little or no effect”.

And the CD36 expression (CD36; cultured macrophages, compound in the absence of LDL)?
Its CD36 expression is “did not increase expression of either receptor”.

And the “recruitment (migration) of macrophages” value ([1]; 0-25 μM, 4 h, P<0.001)?
The value was “dose-dependent recruitment of macrophages”.

And the migration of macrophages ([1]; compound co-incubated with BSA)?
Its migration of macrophages is “macrophage migration still occurs”.

And the migration of macrophages ([1]; compound complexed with native LDL (100 μg/ml))?
The migration of macrophages was “no significant migration”.
